Measured values from patent publication US20260240154A1, “GLOBODERA PALLIDA CONTROL AGENT” (National Agriculture and Food Research Organization, priority 2021, published 2026).

system: Globodera pallida eggs; test: Hatching accelerating effect evaluation test for Globodera pallida (liquid immersion test); assay type: in vivo; conditions: 1 mL of 2 ppm test reagent solution added to 1 mL egg suspension; 16° C.; about 2 weeks; two replicates
Protocol: A predetermined amount of compound (I) was dissolved in an aqueous solution containing 0.05% (v/v) of polyoxyethylene sorbitan monolaurate (Tween20) to prepare a 100 ppm solution of compound (I).
The 100 ppm solution of compound (I) was further diluted with a 0.05% (v/v) Tween20 aqueous solution to prepare a test reagent solution with a concentration of compound (I) of 2 ppm.
The cysts of Globodera pallida increased in a greenhouse before the previous year were isolated from the soil, immersed in distilled water and kept at 16° C. for about 2 weeks were crushed with a scalpel and the eggs were taken out to obtain an egg suspension. After preparing a density of approximately 600 eggs per mL, Tween 20 was added to a concentration of 0.05% (v/v). 1 mL of this egg suspension was put into a 13.5 mL screw cap glass vial (inner diameter: 2.1 cm, height: 4.8 cm), and 1 mL each of a test reagent solution with a concentration of compound (I) of 2 ppm was added. It was covered and kept at 16° C.
About 2 weeks later, 1 mL was taken out, and the number of hatching larvae and the number of eggs were counted under a stereomicroscope. Two replicates were installed for each compound, and the average hatching rate was calculated.

Going from `CC1(C)NC(=O)[C@H]2C[C@]21c1ccccc1` (stereo in doubt) [Compound C-1, 4,4-dimethyl-5-phenyl-3-azabicyclo[3.1.0]hexan-2-one] to `CC1(C)NC(=O)CC1c1ccccc1` (stereo not drawn) [Compound 1, 5,5-dimethyl-4-phenyl-2-pyrrolidinone], the “Average hatching rate (%)” value falls from 94.0% to 83.0%.

Going from `COc1ccc(C2CC(=O)NC2(C)C)cc1` (stereo not drawn) [Compound 6, 5,5-dimethyl-4-(4-methoxyphenyl)-2-pyrrolidinone] to `CC1(C)NC(=O)CC1c1ccc(F)cc1` (stereo not drawn) [Compound 8, 5,5-dimethyl-4-(4-fluorophenyl)-2-pyrrolidinone], the “Average hatching rate (%)” value rises from 38.0% to 94.1%.

Compared with `CC1(C)NC(=O)CC1c1ccc(C(F)(F)F)cc1` (stereo not drawn) [Compound 7, 5,5-dimethyl-4-(4-trifluoromethylphenyl)-2-pyrrolidinone], `Cc1cccc(C2CC(=O)NC2(C)C)c1` (stereo not drawn) [Compound 9, 5,5-dimethyl-4-(3-methylphenyl)-2-pyrrolidinone] is lower in “Average hatching rate (%)” value: 86.6% for the first, 72.3% for the second.

First: Cc1ccccc1C1CC(=O)NC1(C)C (stereo not drawn) [Compound 10, 5,5-dimethyl-4-(2-methylphenyl)-2-pyrrolidinone]
Second: Cc1ccc(C)c(C2CC(=O)NC2(C)C)c1 (stereo not drawn) [Compound 11, 5,5-dimethyl-4-(2,5-dimethyl-phenyl)-2-pyrrolidinone]
The “Average hatching rate (%)” value of the first is lower: 69.2% for the first, 72.9% for the second.

First: CC1(C)NC(=O)CC1c1cc(F)c(F)c(F)c1 (stereo not drawn) [Compound 13, 5,5-dimethyl-4-(3,4,5-trifluoro-phenyl)-2-pyrrolidinone]
Second: Cc1ccc(C2CC(=O)NC2(C)C)c(C)c1 (stereo not drawn) [Compound 14, 5,5-dimethyl-4-(2,4-dimethyl-phenyl)-2-pyrrolidinone]
The “Average hatching rate (%)” value of the first is higher: 62.6% for the first, 37.6% for the second.

First: CC1C(=O)NC(C)(C)C1c1ccccc1 (stereo not drawn) [Compound 15, 3,5,5-trimethyl-4-phenyl-2-pyrrolidinone]
Second: CC1(C)NC(=S)CC1c1ccccc1 (stereo not drawn) [Compound 16, 5,5-dimethyl-4-phenyl pyrrolidine-2-thione]
The “Average hatching rate (%)” value of the first is higher: 77.3% for the first, 69.2% for the second.

With `CC1(C)OC(=O)CC1c1ccccc1` (stereo not drawn) [Compound 17, 5,5-dimethyl-4-phenyldihydrofuran-2(3H)-one] the “Average hatching rate (%)” value was 58.6%.

same assay, conditions: 1 ppm; optically active compounds

Compared with `CC1(C)NC(=O)CC1c1ccccc1` (single isomer, unassigned) [1 (−), 5,5-dimethyl-4-phenyl-2-pyrrolidinone], `CC1(C)NC(=O)CC1c1ccc(Cl)cc1` (single isomer, unassigned) [3 (−), 5,5-dimethyl-4-(4-chlorophenyl)-2-pyrrolidinone] is higher in “Average hatching rate at 1 ppm (%)” value: 87.7% for the first, 92.0% for the second.

Going from `CC1(C)NS(=O)(=O)CC1c1ccc(Cl)cc1` (single isomer, unassigned) [B-12 (−), 4-(4-chlorophenyl)-3,3-dimethylisothiazolidine-1,1-dioxide] to `CC1(C)NC(=O)CC1c1ccc(Cl)cc1` (single isomer, unassigned; (+)) [3 (+), (+)-5,5-dimethyl-4-(4-chlorophenyl)-2-pyrrolidinone], the “Average hatching rate at 1 ppm (%)” value falls from 94.6% to 93.2%.

First: CC1(C)NC(=O)CC1c1ccccc1 (single isomer, unassigned; (+)) [1 (+), (+)-5,5-dimethyl-4-phenyl-2-pyrrolidinone]
Second: Cc1ccc(C2CC(=O)NC2(C)C)cc1 (single isomer, unassigned; (+)) [2 (+), (+)-5,5-dimethyl-4-(4-methylphenyl)-2-pyrrolidinone]
The “Average hatching rate at 1 ppm (%)” value of the first is lower: 37.8% for the first, 63.6% for the second.

Compared with `CC1(C)NS(=O)(=O)CC1c1ccc(Cl)cc1` (single isomer, unassigned; (+)) [B-12 (+), (+)-4-(4-chlorophenyl)-3,3-dimethylisothiazolidine-1,1-dioxide], `Cc1ccc(C2CC(=O)NC2(C)C)cc1` (single isomer, unassigned; (-)) [Compound 2 (−), (−)-5,5-dimethyl-4-(4-methylphenyl)-2-pyrrolidinone] is lower in “Average hatching rate at 1 ppm (%)” value: 95.2% for the first, 91.8% for the second.
